“Also recorded” adds a separate entry of the source.
How the values were obtained:
Format in all cases: cell-based, human
[1] = tested on: PD-L1; assay: PD-L1 expression in PDO tumour cells cocultured with activated PBMC (flow cytometry and multiplex imaging); settings: resistant PDOs, co-cultured 48 h with activated PBMC
Protocol: A multi-modal assay was developed to test tumour cell response to niraparib and the effects of the treatment on immune cells. The assay is illustrated in FIG. 1. […] After 5 to 7 days (according to the proliferation rate of each PDO), one plate is treated with different doses of niraparib and DMSO for cytotoxicity evaluation. The remaining plates, PDOs are treated with niraparib (1.4 μM), cisplatin (4.7 μM), DMSO or saline solution (control) for 7 days. Following the treatment period, the media from one plate/condition (i.e. one DMSO and one Niraparib-treated plate) is collected for exosomes isolation and analysis of DNA length and the PDOs are processed to extract RNA for RNAseq and qRT-PCR (see the details in the qRT-PCR analysis section). […]
(§1) MACS buffer with mouse anti human CD3, CD8, CD4, CD56, CD226, CD45, TIGIT, PD1, PDL1, EpCAM, PVRIG, TIM3, CD96, CD14 and CD11b antibodies for one hour at 4° C. […] The cell-containing tubes are running on CytoFLEX (Beckman Coulter), and data analyzed with FlowJo software.
Multiplex fluorescence imaging assay is performed on a single 6-micron cryosection of fixed-frozen PDOs. […]

[2] = tested on: exosomal DNA (exoDNA) from PDOs; assay: Length of DNA isolated from exosomes (exoDNA) of treated PDOs; settings: for exoDNA length, sensitive PDO HNX29: HNX29 (sensitive, representative), exosomes collected after 6 days, compared to control
Protocol: A multi-modal assay was developed to test tumour cell response to niraparib and the effects of the treatment on immune cells. The assay is illustrated in FIG. 1. […] After 5 to 7 days (according to the proliferation rate of each PDO), one plate is treated with different doses of niraparib and DMSO for cytotoxicity evaluation. […] Following the treatment period, the media from one plate/condition (i.e. one DMSO and one Niraparib-treated plate) is collected for exosomes isolation and analysis of DNA length and the PDOs are processed to extract RNA for RNAseq and qRT-PCR (see the details in the qRT-PCR analysis section). For both niraparib and cisplatin treated samples (and the respective controls) PDOs are collected from the remaining plates and, after washing out BME, are plated into low adherence 96 well plates in a 1 to 6 ratio with Peripheral Blood Mononuclear Cells (PBMCs) pre-stimulated for a total of 4 days using anti-CD3 in combination anti-CD28 (as costimulatory signal) antibodies. The PDOs are co-cultured for 48 h after which all the cells are collected, the not infiltrating immune cells are washed off and the rest is either digested to single cells or fixed and embedded as whole tissue. For flow cytometry analysis the single cells are blocked, stained with antibody mix, fixed, and run on a flow cytometer. For imaging, the embedded organoids are labelled with different antibodies, cleared, and imaged.
Exosomes are obtaining by a series of centrifugations and ultra-centrifugations at increasing speeds of the media collected from the PDO cultures. Each sample is split into two tubes for the ultracentrifugation (for subsequent protein and genomic analysis).
DNA is extracted from exosomes via silica-membrane based nucleic acid purification by QIAamp Blood DNA extraction Kit (QIAGEN) and quantified by Qubit dsDNA HS kit. The Genomic DNA ScreenTape assay on the Agilent 4200 Tapestation system is used to assess the length of DNA and the R package bioanalyzeR exploited to obtain the DNA size distribution and number of molecules at different sizes. Part of the exosome DNA is sequenced using Oxford Nanopore Promethion for a drug treatment and a control experiment. For both samples, reads are then aligned to the human genome (hg38) using minimap2, and the following analyses performed. For every gene for which there are any aligned reads, the following is calculated: • Fragments per kilobase million (FPKM) as a normalised metric of representation of gene in the exosome dataset • The maximum fraction of total gene length that is covered by a single nanopore read. • The median fraction of total gene length that is covered by all nanopore reads that aligned to that gene • Coding and non-coding variants (for all bases for which there was a minimum depth of 20 reads) • Hypomethylation of CpG island of coding variants

[3] = tested on: CD45 positive cells infiltrating PDOs; assay: Flow cytometry of CD45 positive immune cells infiltrating PDOs after coculture with activated PBMC; settings: 48 h coculture
Protocol: (§2) A multi-modal assay was developed to test tumour cell response to niraparib and the effects of the treatment on immune cells. The assay is illustrated in FIG. 1. […] After 5 to 7 days (according to the proliferation rate of each PDO), one plate is treated with different doses of niraparib and DMSO for cytotoxicity evaluation. The remaining plates, PDOs are treated with niraparib (1.4 μM), cisplatin (4.7 μM), DMSO or saline solution (control) for 7 days. Following the treatment period, the media from one plate/condition (i.e. one DMSO and one Niraparib-treated plate) is collected for exosomes isolation and analysis of DNA length and the PDOs are processed to extract RNA for RNAseq and qRT-PCR (see the details in the qRT-PCR analysis section). For both niraparib and cisplatin treated samples (and the respective controls) PDOs are collected from the remaining plates and, after washing out BME, are plated into low adherence 96 well plates in a 1 to 6 ratio with Peripheral Blood Mononuclear Cells (PBMCs) pre-stimulated for a total of 4 days using anti-CD3 in combination anti-CD28 (as costimulatory signal) antibodies. The PDOs are co-cultured for 48 h after which all the cells are collected, the not infiltrating immune cells are washed off and the rest is either digested to single cells or fixed and embedded as whole tissue. For flow cytometry analysis the single cells are blocked, stained with antibody mix, fixed, and run on a flow cytometer. For imaging, the embedded organoids are labelled with different antibodies, cleared, and imaged.
After 48 h of co-culture, PDOs are collected. The non-infiltrating immune cells are separated with a cell strainer while the organoids and infiltrating immune cells reduced to single cell level. Live dead exclusion is performed incubating the cells with Zombie dye for 30 minutes at room temperature. Following a blocking step in MACS buffer and anti-human and mouse IgG, staining is performed in
MACS buffer with mouse anti human CD3, CD8, CD4, CD56, CD226, CD45, TIGIT, PD1, PDL1, EpCAM, PVRIG, TIM3, CD96, CD14 and CD11b antibodies for one hour at 4° C. The cells are then fixed and DNA staining performed. The cell-containing tubes are running on CytoFLEX (Beckman Coulter), and data analyzed with FlowJo software.

[4] = tested on: Patient-derived organoids (PDOs), HNSCC and NSCLC; assay: Cytotoxicity in patient-derived organoids (Cell titre glow dose-response curve); settings: for PDO response to niraparib compared with cisplatin: resistant and sensitive PDOs, 6 days
Protocol: as §2
PDOs are seeded as single cells at a certain density (according to their growth rate) in 15 μl BME/dome.
1 dome per well in 24-wells plate with 1 ml of complete media/each well. […] 150 μl of the solution is collected from each well and transferred to a 96 well plate for the reading performed with Clariostar Plus (BMG Labtech). […]

[5] = tested on: EpCAM positive cells of PDOs; assay: Tumour cell viability by flow cytometry (live cells within EpCAM positive cells) after coculture with PBMC; settings: 1.4 μM niraparib or DMSO 7 days, 48 h coculture with PBMC
Protocol: as §2, with “The PDOs are co-cultured for 48 h after which all the cells are collected, the not infiltrating immune cells are washed off and the rest is either digested to single cells or fixed and embedded as whole tissue. For flow cytometry analysis the single cells are blocked, stained with antibody mix, fixed, and run on a flow cytometer. For imaging, the embedded organoids are labelled with different antibodies, cleared, and imaged.” left out
Cell viability is evaluated by flow cytometry analysis performed after 48 h of co-culture subsequent to 7 days of treatment with 1.4 μM Niraparib or DMSO (as control). […]

[6] = tested on: PD1; assay: Flow cytometry of PD1 expression on CD4 positive cells cocultured with PDOs; settings: niraparib-treated PDOs, 48 h coculture
Protocol: as §2, with “The PDOs are co-cultured for 48 h after which all the cells are collected, the not infiltrating immune cells are washed off and the rest is either digested to single cells or fixed and embedded as whole tissue. For flow cytometry analysis the single cells are blocked, stained with antibody mix, fixed, and run on a flow cytometer. For imaging, the embedded organoids are labelled with different antibodies, cleared, and imaged.” left out
as §1

Structure (SMILES)	PD-L1 expression in cisplatin-treated tumour cells ([1]; vs saline)	exoDNA length, sensitive PDO HNX29 [2]	exoDNA length, cisplatin-treated PDOs more resistant to niraparib ([2]; PDOs more resistant to niraparib, cisplatin-treated)	infiltration of CD45 positive cells, cisplatin-treated resistant PDOs ([3]; PDOs classified as resistant to niraparib, cisplatin 4.7 μM 7 days, vs saline)	infiltration of CD45 positive cells, cisplatin-treated sensitive PDOs ([3]; PDOs classified as sensitive to niraparib, cisplatin 4.7 μM 7 days, vs saline)	PDO response to niraparib compared with cisplatin [4]	threshold ratio (niraparib/DMSO) in tumour cell viability between sensitive and resistant cancers [5]	change / ratio (niraparib/DMSO) in tumour cell viability ([5]; sensitive vs resistant PDOs)	PD-L1 expression in niraparib-treated tumour cells ([1]; vs DMSO)	correlation of exoDNA length with niraparib IC50 ([2]; 6 HNSCC and 3 NSCLC PDOs)	threshold ratio (niraparib/DMSO) of exosomal DNA length ([2]; ROC curve vs IC50 value, 10 PDOs, sensitivity 100%, specificity 67%)	exoDNA length, niraparib-treated, versus niraparib sensitiveness ([2]; compared to exoDNA from DMSO-treated counterpart)	exoDNA length, niraparib-treated more resistant PDOs ([2]; resistant PDOs, compared to DMSO-treated counterpart)	infiltration of CD45 positive cells, niraparib-treated resistant PDOs ([3]; resistant PDOs (high niraparib IC50), niraparib 1.4 μM 7 days, vs DMSO)	infiltration of CD45 positive cells, niraparib-treated sensitive PDOs ([3]; sensitive PDOs (low niraparib IC50), niraparib 1.4 μM 7 days, vs DMSO)	PD1 expression in infiltrating CD4 positive cells ([6]; infiltrating CD4 positive (T) cells)	PD1 expression in non-infiltrating CD4 positive cells ([6]; non-infiltrating CD4 positive cells)	IC50 ([4]; Homo sapiens, 168 h, read-out: IC50 threshold (inflection point) above which increased infiltration of CD45 positive cells is observed, PDOs from multiple tumour types, dose-response curve after 7 days of treatment) [µM]
N.N.[Cl][Pt][Cl] [cisplatin]	upregulation of PDL1 expression	higher	shorter	higher infiltration of CD45 pos cells; also recorded: increased infiltration of CD45 positive cells	decreased infiltration with CD45 positive cells	similar	–	–	–	–	–	–	–	–	–	–	–	–
NC(=O)c1cccc2cn(-c3ccc([C@@H]4CCCNC4)cc3)nc12 [niraparib]	–	higher	–	–	–	similar	0.75	higher ratio (naraparib/DMSO) in tumour cell viability; also recorded: only pronounced in cancers that are sensitive to the PARP inhibitor, niraparib	upregulation of PD-L1 expression; also recorded: PDL1 upregulation; also recorded: high levels of PD-L1, or PD-L1 upregulation	exoDNA length correlates with the niraparib IC50	1.1	increased with the increase of niraparib sensitiveness	shorter	increased in resistant samples; also recorded: increased infiltration of CD45 positive cells; also recorded: increased levels of CD45 positive cell infiltration	reduced in sensitive samples; also recorded: decreased infiltration with CD45 positive cells	PD1 expression increases with the increased in IC50 value; also recorded: upregulate PD1 expression; also recorded: high levels of PD1 expression	PD1 expression negatively correlates with niraparib IC50 value	1 to 1.2

From patent US20260308691A1, “NOVEL USE OF AN INHIBITOR OF THE POLY-ADP RIBOSE POLYMERASE (PARP) IN THE TREATMENT OF CANCER” (TESARO, Inc., priority 2023, published 2026)
